Columns and labels:
Leukemia L1210 = test: Activity against Leukemia L1210, intraperitoneal, increase in life span of mice; type: in vivo, female mice (BDF1 family); conditions: for ED (maximum ILS) / ED30: Mus musculus, L1210, ip; for ED (maximum ILS) / ED30 / O.D. (optimum dosage) / ILS30: ip once a day for 5 successive days; for ED (maximum ILS) / O.D. (optimum dosage): daily dosage giving maximum increase of life span; for ED (maximum ILS): read-out: O.D. (optimum dosage); for ED30 / ILS30: daily dosage increasing average survival days by 30%; for ED30: read-out: ILS30; for Survivors after 60 days / Max. ILS % / Therapeutic ratio TR: ip; for Survivors after 60 days: 6-membered group; for Max. ILS %: 60-day observation, versus control; for Therapeutic ratio TR: O.D./ILS30
Description: Tests were conducted in accordance with the method for measuring antitumor activity of National Cancer Center Tokyo (A, Hoshi et al, Farumashia 9 464 (1973)). Test compounds were each intraperitoneally (referred to as ip) or orally (referred to as op) administered once a day for 5 successive days to a 6-membered group of femal mice (BDF1 family, each weighing 20 to 23 g) 24 hours after 1×10^5 cells of Leukemia L1210 have been implantated into the abdominal cavities of the mice, and the effect was evaluated by comparing the survival days of treated groups with those of an untreated group of mice (control group) in 60-day observation. An increase percentage of life span (ILS%) was calculated from said average survival days compared with those of the control group. Further, therapeutic ratio (O.D./ILD30, referred to as T.R.) of each tested compound was calculated from the daily dosage of the compound necessary to increase said average survival days by 30% as compared with the control group (this dosage is referred to as ILS 30) and the daily dosage giving a maximum increase of life span to mice implantated with L1210 cells, namely an optimum dosage (referred to as O.D.). The results of five successive days intraperitoneal administrations of test compounds were shown in Tables I to III, and those of five successive oral administrations in Table IV.

[1] = Acute toxicity (LD50, Behrens-Karber method); type: in vivo, ICR mice; conditions: ip, mortality during 30 days; for LD50 at 720 h: mouse, in vivo
Description: Test compounds, dissolved or suspended in 0.5% aqueous CMC, were each intraperitoneally administered to ICR mice in a dose of 0.1 ml per 10 g body weight. LD50 (mg/kg) value of each test compound was calculated from the mortality of mice during 30 days by the Behrens-Karber method.

Row | Molecule | ED (maximum ILS) (Leukemia L1210) | ED30 (Leukemia L1210) | Survivors after 60 days (Leukemia L1210) | Max. ILS % (Leukemia L1210) | Therapeutic ratio TR (Leukemia L1210) | LD50 at 720 h [1] | O.D. (optimum dosage) (Leukemia L1210) | ILS30 (Leukemia L1210) | LD50 [1] | LD50 ([1]; 43200 min)
1 | C=C(C)CN(C(=O)N(CCCl)N=O)[C@@H]1[C@H](O)[C@@H](O)[C@@H](OCC(COC)OC)O[C@@H]1CO (stereo partly drawn) [Compound 130, 3-(2-methyl-2-propenyl)-3-(2,3-dimethoxy-n-propyl α-D-galactopyranose-4-yl)-1-(2-chloroethyl)-1-nitrosourea] | 160 mg/kg | 5.06 mg/kg | 3/6 | > 340% | 31.6 | 525 mg/kg |  |  |  | 
2 | CO[C@H]1O[C@H](CO)[C@@H](O)[C@H](O)[C@H]1NC(=O)N(CCCl)N=O [Compound 2MCαG, 3-(methyl α-D-glucopyranose-2-yl)-1-(2-chloroethyl)-1-nitrosourea, reference compound] | 15.2 mg/kg | 1.15 mg/kg | 5/6 | > 625% | 13.2 | 46 mg/kg |  |  |  | 
3 | CCCCO[C@H]1O[C@H](CN(CC(C)C)C(=O)N(CCCl)N=O)[C@@H](O)[C@H](O)[C@H]1O [Compound 9, 3-isobutyl-3-(n-butyl α-D-glucopyranose-6-yl)-1-(2-chloroethyl)-1-nitrosourea] | 150 mg/kg | 3.33 mg/kg | 6/6 | > 700% | 45.0 | 440 mg/kg |  |  |  | 
4 | COCC(C)OC1OC(CO)C(O)C(O)C1N(CC(C)C)C(=O)N(CCCl)N=O (stereo not drawn) [Compound 70] | 200 mg/kg | 5.21 mg/kg | 4/6 | > 420% | 38.4 | 645 mg/kg |  |  |  | 
5 | CCCN(C[C@H]1O[C@H](OC2CCCCC2)[C@H](O)[C@@H](O)[C@H]1O)C(=O)N(CCCl)N=O [Compound 98, 3-n-propyl-3-(cyclohexyl α-D-galactopyranose-6-yl)-1-(2-chloroethyl)-1-nitrosourea] | 200 mg/kg | 6.45 mg/kg | 3/6 | > 350% | 31.0 | 600 mg/kg |  |  |  | 
6 | COc1ccc(CN(C[C@H]2O[C@H](OCC(C)C)[C@H](O)[C@@H](O)[C@@H]2O)C(=O)N(CCCl)N=O)cc1 [Compound 21, 3-(p-methoxybenzyl)-3-(isobutyl α-D-glucopyranose-6-yl)-1-(2-chloroethyl)-1-nitrosourea] | 200 mg/kg | 5.45 mg/kg | 3/6 | > 360% | 36.7 | 585 mg/kg |  |  |  | 
7 | CCCO[C@H]1O[C@H](CN(CC(C)C)C(=O)N(CCCl)N=O)[C@@H](O)[C@H](O)[C@H]1O [Compound 1, 3-isobutyl-3-(n-propyl α-D-glucopyranose-6-yl)-1-(2-chloroethyl)-1-nitrosourea] | 120 mg/kg | 2.96 mg/kg | 6/6 | > 700% | 40.5 | 340 mg/kg |  |  |  | 
8 | 3-(2-methoxyethyl)-3-(1-methoxyethyl α-D-glucopyranose-3-yl)-1-(2-chloroethyl)-1-nitrosourea [Compound 80] |  |  | 5/6 | > 625% | 48.0 |  | 200 mg/kg | 4.17 mg/kg | 640 mg/kg | 
9 | CC(C)CN(C(=O)N(CCCl)N=O)[C@@H]1[C@@H](O)[C@@H](OC2CCCCC2)OC[C@H]1O [Compound 150, 3-isobutyl-3-(cyclohexyl α-D-xylopyranose-3-yl)-1-(2-chloroethyl)-1-nitrosourea] | 150 mg/kg | 3.12 mg/kg | 4/6 | > 420% | 48.1 | 505 mg/kg |  |  |  | 
10 | CC(C)CO[C@H]1O[C@H](CN(Cc2ccccc2)C(=O)N(CCCl)N=O)[C@@H](O)[C@H](O)[C@H]1O [Compound 22, 3-benzyl-3-(isobutyl α-D-glucopyranose-6-yl)-1-(2-chloroethyl)-1-nitrosourea] | 170 mg/kg | 4.45 mg/kg | 3/6 | > 350% | 38.2 | 510 mg/kg |  |  |  | 
11 | CCCCO[C@H]1O[C@H](CO)[C@@H](O)[C@H](O)[C@H]1N(CCOCCO)C(=O)N(CCCl)N=O [Compound 58, 3-[2-(2-hydroxyethoxy)ethyl]-3-(n-butyl α-D-glucopyranose-2-yl)-1-(2-chloroethyl)-1-nitrosourea] | 190 mg/kg | 4.2 mg/kg | 4/6 | > 422% | 45.2 | 585 mg/kg |  |  |  | 
12 | CC(C)CO[C@H]1O[C@H](CN(Cc2cccs2)C(=O)N(CCCl)N=O)[C@H](O)[C@H](O)[C@H]1O [Compound 112, 3-(thiophene-2-yl-methyl)-3-(isobutyl α-D-galactopyranose-6-yl)-1-(2-chloroethyl)-1-nitrosourea] | 180 mg/kg | 4.17 mg/kg | 3/6 | > 350% | 43.2 | 480 mg/kg |  |  |  | 
13 | CC(C)(C)CN(C[C@H]1O[C@H](OCC2CCCO2)[C@H](O)[C@@H](O)[C@@H]1O)C(=O)N(CCCl)N=O (stereo partly drawn) [Compound 194, 3-neopentyl-3-(tetrahydrofurfuryl α-D-glucopyranose-6-yl)-1-(2-chloroethyl)-1-nitrosourea] |  |  | 6/6 | > 700% | 62.6 |  | 160 mg/kg | 2.56 mg/kg |  | 560 mg/kg
14 | COCCCN(C(=O)N(CCCl)N=O)[C@@H]1[C@@H](O)[C@@H](OCC(C)C)O[C@@H]1CO [Compound 165, 3-(3-methoxy-n-propyl)-3-(isobutyl α-D-xylofuranose-3-yl)-1-(2-chloroethyl)-1-nitrosourea] | 160 mg/kg | 5.57 mg/kg | 3/6 | > 340% | 28.7 | 480 mg/kg |  |  |  | 
15 | CC(C)N(C(=O)N(CCCl)N=O)[C@@H]1CO[C@H](OC2CCCCC2)[C@H](O)[C@H]1O [Compound 148, 3-isopropyl-3-(cyclohexyl α-D-xylopyranose-4-yl)-1-(2-chloroethyl)-1-nitrosourea] | 160 mg/kg | 3.81 mg/kg | 4/6 | > 425% | 42.0 | 480 mg/kg |  |  |  | 
16 | CC(C)(C)N(C[C@H]1O[C@H](OC(c2ccccc2)C2CC2)[C@H](O)[C@@H](O)[C@@H]1O)C(=O)N(CCCl)N=O (stereo partly drawn) [Compound 201, 3-tert-butyl-3-(α-cyclopropylbenzyl α-D-glucopyranose-6-yl)-1-(2-chloroethyl)-1-nitrosourea] | 150 mg/kg | 4.78 mg/kg | 6/6 | > 700% | 31.4 | 460 mg/kg |  |  |  | 
17 | COc1ccc(CN(C[C@H]2O[C@H](OC3CCCCC3)[C@H](O)[C@@H](O)[C@H]2O)C(=O)N(CCCl)N=O)cc1 [Compound 104, 3-(p-methoxybenzyl)-3-(cyclohexyl α-D-galactopyranose-6-yl)-1-(2-chloroethyl)-1-nitrosourea] | 200 mg/kg | 6.61 mg/kg | 3/6 | > 325% | 30.3 | 630 mg/kg |  |  |  | 
18 | CC(C)CO[C@H]1O[C@H](CN(CC(C)C)C(=O)N(CCCl)N=O)[C@H](O)[C@H](O)[C@H]1O [Compound 107, 3-isobutyl-3-(isobutyl α-D-galactopyranose-6-yl)-1-(2-chloroethyl)-1-nitrosourea] | 200 mg/kg | 5.87 mg/kg | 3/6 | > 360% | 34.1 | 650 mg/kg |  |  |  | 
19 | CCC(C)OC1OC(CO)C(O)C(N(CC(C)C)C(=O)N(CCCl)N=O)C1O [Compound 84, 3-isobutyl-3-(sec-butyl α-D-glucopyranose-3-yl)-1-(2-chloroethyl)-1-nitrosourea] | 220 mg/kg | 5.8 mg/kg | 3/6 | > 355% | 37.9 | 695 mg/kg |  |  |  | 
20 | CCCCCCN(C[C@H]1O[C@H](OC2CCCCC2)[C@H](O)[C@@H](O)[C@H]1O)C(=O)N(CCCl)N=O [Compound 100, 3-n-hexyl-3-(cyclohexyl α-D-galactopyranose-6-yl)-1-(2-chloroethyl)-1-nitrosourea] | 200 mg/kg | 6.41 mg/kg | 3/6 | > 330% | 31.2 | 580 mg/kg |  |  |  | 

Source: US4593090A, “Novel nitrosourea compounds, method for preparing same, and pharmaceutical composition containing same” (Gogo Kimura, priority 1981, dated 1986)
